The results in this text go back to PubChem BioAssay (NCI).

Where “and” joins values, the source holds several entries; their conditions need not be identical. Equal entries are not always repeated.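 Method: 48-hour compound exposure of cells in 96-well plates, five concentrations, linear interpolation of endpoints. GI50 = concentration required for 50% inhibition of growth. TGI is the concentration that stops growth completely.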

Among the test systems are DU-145 prostate; HCC-2998 colon; NCI-H460 lung; NCI/ADR-RES ovarian; OVCAR-8 ovarian; RPMI-8226 leukemia; SK-MEL-2 melanoma; SNB-19 CNS; U251 CNS; HOP-92 NSCLC.
Holding throughout (assay): NCI anticancer screen, dose series, 48 h

As for `CC(=O)N[C@@H](Cc1ccc(OP(=O)(O)O)cc1)C(=O)N[C@H]1CCC(=O)N2CCC[C@@H](C(=O)NCc3ccccc3)N2C1=O`, the GI50 in the experiment with DU-145 prostate, with HCC-2998 colon, in the experiment on NCI-H460 lung, in the experiment on NCI/ADR-RES ovarian, in the experiment with OVCAR-8 ovarian and with RPMI-8226 leukemia was above 25 µM throughout. The GI50 in the experiment on SK-MEL-2 melanoma, with SNB-19 CNS and in the experiment on U251 CNS was above 25 µM in each case. Also, the TGI in the experiment with DU-145 prostate, in the experiment on HCC-2998 colon, with NCI-H460 lung, with NCI/ADR-RES ovarian, in the experiment on OVCAR-8 ovarian and in the experiment on RPMI-8226 leukemia was above 25 µM in each case. The TGI with SK-MEL-2 melanoma, in the experiment with SNB-19 CNS and in the experiment on U251 CNS was above 25 µM each time.

In the case of `O=C1CC(CC(OCc2ccccc2)C(OCc2ccccc2)C(COCc2ccccc2)OCc2ccccc2)CC(=O)N1` (stereo not given), the GI50 in the experiment on DU-145 prostate was > 100 µM and 27.1 µM; in the experiment with HCC-2998 colon, > 100 µM and 12.9 µM; with NCI/ADR-RES ovarian, > 100 µM and 12.8 µM; in the experiment with OVCAR-8 ovarian, > 100 µM and 13.7 µM; with SNB-19 CNS it was > 100 µM and 33.8 µM. Also, the TGI with DU-145 prostate was above 100 µM; in the experiment on HCC-2998 colon, > 100 µM and 42.9 µM; in the experiment with HOP-92 NSCLC, above 100 µM; in the experiment on NCI-H460 lung, > 100 µM and 97.7 µM; with NCI/ADR-RES ovarian, above 100 µM; in the experiment with OVCAR-8 ovarian it was > 100 µM and 48.8 µM. For the same compound, the TGI in the experiment on RPMI-8226 leukemia is > 100 µM and 32.8 µM; in the experiment with SNB-19 CNS it was above 100 µM; with U251 CNS, > 100 µM and 18.1 µM.

Turning to `COc1cc(/C=C/C(=O)c2c(-c3ccc(F)cc3)nc3sc(C)nn23)cc(OC)c1OC`, the GI50 in the experiment with DU-145 prostate is 2.91 µM; with HCC-2998 colon it was 2.12 µM; in the experiment with HOP-92 NSCLC, 1.6 µM; with NCI-H460 lung, 1.94 µM; with NCI/ADR-RES ovarian, 2.57 µM; in the experiment on OVCAR-8 ovarian, 2.48 µM. Besides, the GI50 was 1.92 µM in the experiment on RPMI-8226 leukemia, 3.24 µM in the experiment on SNB-19 CNS and 2.01 µM in the experiment on U251 CNS. Further, the TGI in the experiment on DU-145 prostate came to 10.4 µM; in the experiment with HCC-2998 colon it was 3.96 µM; with HOP-92 NSCLC, 8.64 µM; with NCI-H460 lung, 4.08 µM; in the experiment with NCI/ADR-RES ovarian, 9.91 µM; in the experiment on OVCAR-8 ovarian, 12.9 µM. The values for the TGI with RPMI-8226 leukemia, in the experiment with SNB-19 CNS and with U251 CNS were 5.13 µM, 13.1 µM and 5.45 µM, respectively.

Consider `CC(=O)OCC1OC(n2ncc(=O)[nH]c2=O)C(OC(C)=O)C1OC(C)=O` (stereo not given), for which the TGI in the experiment with DU-145 prostate, with HCC-2998 colon, in the experiment on HOP-92 NSCLC, in the experiment with NCI-H460 lung, with NCI/ADR-RES ovarian and in the experiment on OVCAR-8 ovarian was above 100 µM each time. Moreover, the TGI in the experiment with RPMI-8226 leukemia and with U251 CNS was above 100 µM each time.

Turning to `CCNCCNc1cc(-c2ccc(C(F)(F)F)cc2)c(C#N)c2nc3cc(Cl)c(Cl)cc3n12`, the GI50 in the experiment on DU-145 prostate was 1.7 µM; in the experiment on HCC-2998 colon, 2.34 µM; in the experiment with HOP-92 NSCLC it was 1.41 µM; with NCI-H460 lung it was 1.66 µM; in the experiment with NCI/ADR-RES ovarian, 1.49 µM; in the experiment with OVCAR-8 ovarian, 1.74 µM. The figures for the GI50 in the experiment with RPMI-8226 leukemia, in the experiment on SNB-19 CNS and in the experiment with U251 CNS were 1.71 µM, 1.88 µM and 1.67 µM, respectively. The TGI in the experiment with DU-145 prostate came out at 3.13 µM; in the experiment on HCC-2998 colon, 4.14 µM; with HOP-92 NSCLC, 2.96 µM; with NCI-H460 lung, 3.27 µM; with NCI/ADR-RES ovarian, 3.33 µM; with OVCAR-8 ovarian, 3.41 µM. Besides, the values for the TGI in the experiment with RPMI-8226 leukemia, in the experiment with SNB-19 CNS and in the experiment with U251 CNS were 3.85 µM, 3.65 µM and 3.08 µM, respectively.

In the case of `Cn1cc(C2=C(c3cn(CCCCCO)c4ccccc34)C(=O)NC2=O)c2ccccc21`, the GI50 with DU-145 prostate is 8.83 µM; in the experiment on HCC-2998 colon it was 7.47 µM; in the experiment with NCI-H460 lung, 6.01 µM; in the experiment with NCI/ADR-RES ovarian, 7.04 µM; in the experiment on OVCAR-8 ovarian, 6.3 µM; in the experiment with RPMI-8226 leukemia, 6.6 µM. The GI50 with SK-MEL-2 melanoma is 2.83 µM; with SNB-19 CNS, 8.41 µM; in the experiment on U251 CNS it was 5.98 µM. Also, the TGI with DU-145 prostate is above 25 µM; with HCC-2998 colon, above 20.6 µM; with NCI-H460 lung, 14.8 µM; in the experiment with NCI/ADR-RES ovarian, above 22.5 µM; in the experiment with OVCAR-8 ovarian, above 20.2 µM; in the experiment on RPMI-8226 leukemia it was 18.4 µM. The TGI was 8.15 µM with SK-MEL-2 melanoma, above 23.2 µM in the experiment on SNB-19 CNS and above 17.3 µM with U251 CNS.

In the case of `COc1cc2c(c(OC)c1OC)-c1c(c3ccc([N+](=O)[O-])cc3c(=O)n1CCCN)C2=O`, the GI50 is 7.27 µM in the experiment on DU-145 prostate; 9.12 µM in the experiment on HCC-2998 colon; 7.21 µM in the experiment with HOP-92 NSCLC; 15.9 µM in the experiment with NCI-H460 lung; 5.49 µM in the experiment with NCI/ADR-RES ovarian; 1.79 µM with OVCAR-8 ovarian. Further, the GI50 in the experiment on RPMI-8226 leukemia was 1.29 µM; in the experiment with SK-MEL-2 melanoma, 1.21 µM; in the experiment with U251 CNS, 0.92 µM. For the same compound, the TGI was 16.6 µM with DU-145 prostate; 17.6 µM with HCC-2998 colon; 15.8 µM with HOP-92 NSCLC; above 50 µM with NCI-H460 lung; 15.6 µM with NCI/ADR-RES ovarian; 6.42 µM in the experiment with OVCAR-8 ovarian. Further, the TGI in the experiment on RPMI-8226 leukemia was found to be 3.75 µM; with SK-MEL-2 melanoma, 2.77 µM; in the experiment on U251 CNS, 1.75 µM.

Consider `O=C(c1ccccc1)c1nc2ccc(C(F)(F)F)cc2nc1N1CCN(c2ccccc2)CC1`, for which the GI50 was 57.6 µM in the experiment on DU-145 prostate; 49.3 µM in the experiment on HOP-92 NSCLC; 52.1 µM with NCI-H460 lung; 34.2 µM in the experiment on NCI/ADR-RES ovarian; 41.8 µM in the experiment on OVCAR-8 ovarian; 23.3 µM in the experiment on RPMI-8226 leukemia. The values for the GI50 in the experiment with SK-MEL-2 melanoma, in the experiment with SNB-19 CNS and with U251 CNS were 48 µM, 71.5 µM and 60.9 µM, respectively. Moreover, the TGI in the experiment on DU-145 prostate, with HOP-92 NSCLC, in the experiment on NCI-H460 lung, in the experiment with NCI/ADR-RES ovarian, in the experiment with OVCAR-8 ovarian and in the experiment on RPMI-8226 leukemia was above 100 µM throughout. Also, the TGI with SK-MEL-2 melanoma, with SNB-19 CNS and in the experiment on U251 CNS was above 100 µM in each case.
